Measurements reported in publication PMC10722513.

Experiment: Au(I)-catalysed intramolecular Trp C2-H alkynylation: peptide-EBX (4-ethynylbenzoyl bis-CF3-benziodoxole on Lys side chain or N-terminus) + AuCl·Me2S, open flask
Conditions: HFIP, 5.0 mM, 25.0 °C, 0.17 h

CC(=O)N[C@@H](CCC(=O)O)C(=O)N[C@H](C(=O)N[C@@H](Cc1ccccc1)C(=O)N[C@H]1CCCCNC(=O)c2ccc(cc2)C#Cc2[nH]c3ccccc3c2C[C@@H](C(=O)N[C@@H](C)C(=O)N[C@@H](CC(C)C)C(=O)N[C@@H](CC(C)C)C(=O)N[C@@H](Cc2c[nH]c3ccccc23)C(N)=O)NC(=O)[C@H](CC(C)C)NC(=O)[C@H](CC(=O)O)NC1=O)[C@@H](C)O [Ac-E-T-F-K(EBX)-D-L-W-A-L-L-W-NH2] gave a ring closure, isolated yield (from CC(=O)N[C@@H](CCC(=O)O)C(=O)N[C@H](C(=O)N[C@@H](Cc1ccccc1)C(=O)N[C@@H](CCCCNC(=O)c1ccc(C#CI2OC(C(F)(F)F)(C(F)(F)F)c3ccccc32)cc1)C(=O)N[C@@H](CC(=O)O)C(=O)N[C@@H](CC(C)C)C(=O)N[C@@H](Cc1c[nH]c2ccccc12)C(=O)N[C@@H](C)C(=O)N[C@@H](CC(C)C)C(=O)N[C@@H](CC(C)C)C(=O)N[C@@H](Cc1c[nH]c2ccccc12)C(N)=O)[C@@H](C)O, 25-membered ring) of 37%.

In the case of CC(=O)N[C@H]1CCCCNC(=O)c2ccc(cc2)C#Cc2[nH]c3ccccc3c2C[C@@H](C(=O)O)NC(=O)[C@H](Cc2ccccc2)NC(=O)[C@H](C)NC(=O)[C@H](CSSC(C)(C)C)NC1=O [Ac-K(EBX)-C(StBu)-A-F-W-OH], the ring closure, isolated yield (from CC(=O)N[C@@H](CCCCNC(=O)c1ccc(C#CI2OC(C(F)(F)F)(C(F)(F)F)c3ccccc32)cc1)C(=O)N[C@@H](CSSC(C)(C)C)C(=O)N[C@@H](C)C(=O)N[C@@H](Cc1ccccc1)C(=O)N[C@@H](Cc1c[nH]c2ccccc12)C(=O)O, 28-membered ring) is reported as 25%.

For CC(=O)N[C@H]1CCCCNC(=O)c2ccc(cc2)C#Cc2[nH]c3ccccc3c2C[C@@H](C(=O)O)NC(=O)[C@H](Cc2ccccc2)NC(=O)[C@H](C)NC(=O)[C@H](CC(=O)O)NC1=O [Ac-K(EBX)-D-A-F-W-OH], the ring closure, isolated yield (from CC(=O)N[C@@H](CCCCNC(=O)c1ccc(C#CI2OC(C(F)(F)F)(C(F)(F)F)c3ccccc32)cc1)C(=O)N[C@@H](CC(=O)O)C(=O)N[C@@H](C)C(=O)N[C@@H](Cc1ccccc1)C(=O)N[C@@H](Cc1c[nH]c2ccccc12)C(=O)O, 28-membered ring) was 51%.

With CC(=O)N[C@H]1CCCCNC(=O)c2ccc(cc2)C#Cc2[nH]c3ccccc3c2C[C@@H](C(=O)O)NC(=O)[C@H](Cc2ccccc2)NC(=O)[C@H](C)NC(=O)[C@H](CCC(=O)O)NC1=O [Ac-K(EBX)-E-A-F-W-OH] the ring closure, isolated yield (from CC(=O)N[C@@H](CCCCNC(=O)c1ccc(C#CI2OC(C(F)(F)F)(C(F)(F)F)c3ccccc32)cc1)C(=O)N[C@@H](CCC(=O)O)C(=O)N[C@@H](C)C(=O)N[C@@H](Cc1ccccc1)C(=O)N[C@@H](Cc1c[nH]c2ccccc12)C(=O)O, 28-membered ring) was 37%.

CC(=O)N[C@H]1CCCCNC(=O)c2ccc(cc2)C#Cc2[nH]c3ccccc3c2C[C@@H](C(=O)O)NC(=O)[C@H](Cc2ccccc2)NC(=O)[C@H](C)NC(=O)[C@H](Cc2c[nH]cn2)NC1=O [Ac-K(EBX)-H-A-F-W-OH] showed a ring closure, isolated yield (from CC(=O)N[C@@H](CCCCNC(=O)c1ccc(C#CI2OC(C(F)(F)F)(C(F)(F)F)c3ccccc32)cc1)C(=O)N[C@@H](Cc1c[nH]cn1)C(=O)N[C@@H](C)C(=O)N[C@@H](Cc1ccccc1)C(=O)N[C@@H](Cc1c[nH]c2ccccc12)C(=O)O, 28-membered ring) of 30%.

Work on CC(=O)N[C@H]1CCCCNC(=O)c2ccc(cc2)C#Cc2c(c3ccccc3n2C)C[C@@H](C(=O)O)NC(=O)[C@H](Cc2ccccc2)NC(=O)[C@H](C)NC(=O)[C@H](CC(C)C)NC1=O [Ac-K(EBX)-L-A-F-W(1-Me)-OH] yielded a ring closure, isolated yield (from CC(=O)N[C@@H](CCCCNC(=O)c1ccc(C#CI2OC(C(F)(F)F)(C(F)(F)F)c3ccccc32)cc1)C(=O)N[C@@H](CC(C)C)C(=O)N[C@@H](C)C(=O)N[C@@H](Cc1ccccc1)C(=O)N[C@@H](Cc1cn(C)c2ccccc12)C(=O)O, 28-membered ring) of 63%.

Compound CC(=O)N[C@H]1CCCCNC(=O)c2ccc(cc2)C#Cc2[nH]c3ccccc3c2C[C@@H](C(=O)O)NC(=O)[C@H](Cc2ccccc2)NC(=O)[C@H](C)NC(=O)[C@H](CC(C)C)NC1=O [Ac-K(EBX)-L-A-F-W-OH] has a ring closure, isolated yield (from CC(=O)N[C@@H](CCCCNC(=O)c1ccc(C#CI2OC(C(F)(F)F)(C(F)(F)F)c3ccccc32)cc1)C(=O)N[C@@H](CC(C)C)C(=O)N[C@@H](C)C(=O)N[C@@H](Cc1ccccc1)C(=O)N[C@@H](Cc1c[nH]c2ccccc12)C(=O)O, 28-membered ring) of 56%.

Work on CC(=O)N[C@H]1CCCCNC(=O)c2ccc(cc2)C#Cc2[nH]c3ccccc3c2C[C@@H](C(=O)O)NC(=O)[C@H](CC(C)C)NC1=O [Ac-K(EBX)-L-W-OH] yielded a ring closure, isolated yield (from CC(=O)N[C@@H](CCCCNC(=O)c1ccc(C#CI2OC(C(F)(F)F)(C(F)(F)F)c3ccccc32)cc1)C(=O)N[C@@H](CC(C)C)C(=O)N[C@@H](Cc1c[nH]c2ccccc12)C(=O)O, 22-membered ring) of 40%.

Compound CSCC[C@@H]1NC(=O)[C@@H](NC(C)=O)CCCCNC(=O)c2ccc(cc2)C#Cc2[nH]c3ccccc3c2C[C@@H](C(=O)O)NC(=O)[C@H](Cc2ccccc2)NC(=O)[C@H](C)NC1=O [Ac-K(EBX)-M-A-F-W-OH] has a ring closure, isolated yield (from CSCC[C@H](NC(=O)[C@H](CCCCNC(=O)c1ccc(C#CI2OC(C(F)(F)F)(C(F)(F)F)c3ccccc32)cc1)NC(C)=O)C(=O)N[C@@H](C)C(=O)N[C@@H](Cc1ccccc1)C(=O)N[C@@H](Cc1c[nH]c2ccccc12)C(=O)O, 28-membered ring) of 0%.

For CC(=O)N[C@H]1CCCCNC(=O)c2ccc(cc2)C#Cc2[nH]c3ccccc3c2C[C@@H](C(=O)O)NC(=O)[C@H](Cc2ccccc2)NC(=O)[C@H](C)NC(=O)[C@H](CC(N)=O)NC1=O [Ac-K(EBX)-N-A-F-W-OH], the ring closure, isolated yield (from CC(=O)N[C@@H](CCCCNC(=O)c1ccc(C#CI2OC(C(F)(F)F)(C(F)(F)F)c3ccccc32)cc1)C(=O)N[C@@H](CC(N)=O)C(=O)N[C@@H](C)C(=O)N[C@@H](Cc1ccccc1)C(=O)N[C@@H](Cc1c[nH]c2ccccc12)C(=O)O, 28-membered ring) was 52%.

For C#CC[C@@H]1NC(=O)[C@@H](NC(C)=O)CCCCNC(=O)c2ccc(cc2)C#Cc2[nH]c3ccccc3c2C[C@@H](C(=O)O)NC(=O)[C@H](Cc2ccccc2)NC(=O)[C@H](C)NC1=O [Ac-K(EBX)-Pra-A-F-W-OH], the ring closure, isolated yield (from C#CC[C@H](NC(=O)[C@H](CCCCNC(=O)c1ccc(C#CI2OC(C(F)(F)F)(C(F)(F)F)c3ccccc32)cc1)NC(C)=O)C(=O)N[C@@H](C)C(=O)N[C@@H](Cc1ccccc1)C(=O)N[C@@H](Cc1c[nH]c2ccccc12)C(=O)O, 28-membered ring) was 57%.

CC(=O)N[C@H]1CCCCNC(=O)c2ccc(cc2)C#Cc2[nH]c3ccccc3c2C[C@@H](C(=O)O)NC(=O)[C@H](Cc2ccccc2)NC(=O)[C@H](C)NC(=O)[C@H](CCC(N)=O)NC1=O [Ac-K(EBX)-Q-A-F-W-OH] showed a ring closure, isolated yield (from CC(=O)N[C@@H](CCCCNC(=O)c1ccc(C#CI2OC(C(F)(F)F)(C(F)(F)F)c3ccccc32)cc1)C(=O)N[C@@H](CCC(N)=O)C(=O)N[C@@H](C)C(=O)N[C@@H](Cc1ccccc1)C(=O)N[C@@H](Cc1c[nH]c2ccccc12)C(=O)O, 28-membered ring) of 56%.

CC(=O)N[C@H]1CCCCNC(=O)c2ccc(cc2)C#Cc2[nH]c3ccccc3c2C[C@@H](C(=O)O)NC(=O)[C@H](Cc2ccccc2)NC(=O)[C@H](C)NC(=O)[C@H](CCCNC(=N)N)NC1=O [Ac-K(EBX)-R-A-F-W-OH] gave a ring closure, isolated yield (from CC(=O)N[C@@H](CCCCNC(=O)c1ccc(C#CI2OC(C(F)(F)F)(C(F)(F)F)c3ccccc32)cc1)C(=O)N[C@@H](CCCNC(=N)N)C(=O)N[C@@H](C)C(=O)N[C@@H](Cc1ccccc1)C(=O)N[C@@H](Cc1c[nH]c2ccccc12)C(=O)O, 28-membered ring) of 42%.

With CC(=O)N[C@H]1CCCCNC(=O)c2ccc(cc2)C#Cc2[nH]c3ccccc3c2C[C@@H](C(=O)O)NC(=O)[C@H](Cc2ccccc2)NC(=O)[C@H](C)NC(=O)[C@H](CO)NC1=O [Ac-K(EBX)-S-A-F-W-OH] the ring closure, isolated yield (from CC(=O)N[C@@H](CCCCNC(=O)c1ccc(C#CI2OC(C(F)(F)F)(C(F)(F)F)c3ccccc32)cc1)C(=O)N[C@@H](CO)C(=O)N[C@@H](C)C(=O)N[C@@H](Cc1ccccc1)C(=O)N[C@@H](Cc1c[nH]c2ccccc12)C(=O)O, 28-membered ring) was 67%.

CC(=O)N[C@H]1CCCCNC(=O)c2ccc(cc2)C#Cc2[nH]c3ccccc3c2C[C@@H](C(=O)O)NC(=O)[C@H](Cc2ccccc2)NC(=O)[C@H](C)NC(=O)[C@H](Cc2ccc(O)cc2)NC1=O [Ac-K(EBX)-Y-A-F-W-OH] showed a ring closure, isolated yield (from CC(=O)N[C@@H](CCCCNC(=O)c1ccc(C#CI2OC(C(F)(F)F)(C(F)(F)F)c3ccccc32)cc1)C(=O)N[C@@H](Cc1ccc(O)cc1)C(=O)N[C@@H](C)C(=O)N[C@@H](Cc1ccccc1)C(=O)N[C@@H](Cc1c[nH]c2ccccc12)C(=O)O, 28-membered ring) of 53%.

CC(=O)N[C@H](C(=O)N[C@@H](CO)C(=O)N[C@@H](Cc1ccccc1)C(=O)N[C@H]1CCCCNC(=O)c2ccc(cc2)C#Cc2[nH]c3ccccc3c2C[C@@H](C(=O)N[C@@H](C)C(=O)N[C@@H](CC(C)C)C(=O)N[C@@H](CC(C)C)C(=O)N[C@@H](Cc2c[nH]c3ccccc23)C(N)=O)NC(=O)[C@H](Cc2ccc(O)cc2)NC(=O)[C@H](CCC(=O)O)NC1=O)[C@@H](C)O [Ac-T-S-F-K(EBX)-E-Y-W-A-L-L-W-NH2] gave a ring closure, isolated yield (from CC(=O)N[C@H](C(=O)N[C@@H](CO)C(=O)N[C@@H](Cc1ccccc1)C(=O)N[C@@H](CCCCNC(=O)c1ccc(C#CI2OC(C(F)(F)F)(C(F)(F)F)c3ccccc32)cc1)C(=O)N[C@@H](CCC(=O)O)C(=O)N[C@@H](Cc1ccc(O)cc1)C(=O)N[C@@H](Cc1c[nH]c2ccccc12)C(=O)N[C@@H](C)C(=O)N[C@@H](CC(C)C)C(=O)N[C@@H](CC(C)C)C(=O)N[C@@H](Cc1c[nH]c2ccccc12)C(N)=O)[C@@H](C)O, 25-membered ring) of 45%.
